Activity calls are given as the source filed them. The calls are words filed in the database; no cut-off is given here.
Tests used:
[1] = target: T1, Pendrin (Homo sapiens, UniProt O43511); test: Inhibition of Pendrin (unknown origin) transfected in rat FRT cells assessed as reduction in Cl-/I- ions exchange by YFP fluorescence quenching assay; assay type: cell-based
T1 sequence (O43511 whole entry): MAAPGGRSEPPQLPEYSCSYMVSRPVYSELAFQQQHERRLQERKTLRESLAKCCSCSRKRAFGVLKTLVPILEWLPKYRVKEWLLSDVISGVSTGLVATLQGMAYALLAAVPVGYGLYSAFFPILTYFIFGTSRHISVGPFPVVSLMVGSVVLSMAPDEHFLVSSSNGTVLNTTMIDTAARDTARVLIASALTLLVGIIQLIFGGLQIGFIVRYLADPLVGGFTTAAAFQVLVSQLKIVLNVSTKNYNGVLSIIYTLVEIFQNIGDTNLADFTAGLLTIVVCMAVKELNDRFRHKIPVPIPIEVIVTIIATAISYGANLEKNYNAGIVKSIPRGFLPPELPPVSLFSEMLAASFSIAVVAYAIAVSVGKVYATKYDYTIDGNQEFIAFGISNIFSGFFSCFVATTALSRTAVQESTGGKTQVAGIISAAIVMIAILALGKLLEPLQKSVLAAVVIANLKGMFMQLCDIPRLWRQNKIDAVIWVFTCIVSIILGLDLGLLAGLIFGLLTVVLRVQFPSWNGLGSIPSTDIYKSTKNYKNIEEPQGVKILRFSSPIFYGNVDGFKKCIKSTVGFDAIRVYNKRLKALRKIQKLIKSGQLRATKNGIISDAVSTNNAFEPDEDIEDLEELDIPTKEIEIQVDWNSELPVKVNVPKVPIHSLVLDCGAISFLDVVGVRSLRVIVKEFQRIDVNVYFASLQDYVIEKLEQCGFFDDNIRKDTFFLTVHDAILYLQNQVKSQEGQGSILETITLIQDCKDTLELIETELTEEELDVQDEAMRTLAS

[2] = test system: Mus musculus; test: Effect on osmolality in mouse model at 10 mg/kg, ip measured for 3 hrs; assay type: functional, organism-based
[3] = target: T2, Solute carrier family 26 member 6 (Homo sapiens) (UniProt Q9BXS9); test: Inhibition of SLC26A6 (unknown origin) transfected in rat FRT cells at 25 uM by YFP fluorescence quenching assay; assay type: cell-based
T2 sequence (whole entry): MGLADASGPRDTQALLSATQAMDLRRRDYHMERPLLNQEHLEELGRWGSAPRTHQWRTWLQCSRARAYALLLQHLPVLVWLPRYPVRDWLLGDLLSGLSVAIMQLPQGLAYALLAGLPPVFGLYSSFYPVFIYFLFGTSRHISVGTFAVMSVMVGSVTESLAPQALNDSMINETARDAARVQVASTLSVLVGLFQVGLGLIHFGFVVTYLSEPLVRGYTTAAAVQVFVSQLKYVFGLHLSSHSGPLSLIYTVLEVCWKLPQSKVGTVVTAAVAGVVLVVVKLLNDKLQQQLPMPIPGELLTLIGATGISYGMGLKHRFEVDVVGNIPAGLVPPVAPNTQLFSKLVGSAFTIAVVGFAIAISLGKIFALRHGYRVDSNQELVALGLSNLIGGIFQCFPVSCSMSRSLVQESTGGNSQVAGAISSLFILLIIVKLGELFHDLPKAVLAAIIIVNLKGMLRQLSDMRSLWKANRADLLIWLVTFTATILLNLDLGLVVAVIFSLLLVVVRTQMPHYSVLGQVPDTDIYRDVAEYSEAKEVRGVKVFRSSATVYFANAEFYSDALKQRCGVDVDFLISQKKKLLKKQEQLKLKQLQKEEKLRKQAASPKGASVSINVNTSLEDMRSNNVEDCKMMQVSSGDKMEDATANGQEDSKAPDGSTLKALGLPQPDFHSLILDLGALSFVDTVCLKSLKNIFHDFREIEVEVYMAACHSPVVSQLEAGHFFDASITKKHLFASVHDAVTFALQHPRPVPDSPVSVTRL

[4] = test system: Mus musculus; test: Effect on osmolality in mouse model at 10 mg/kg, ip measured for 3 hrs in presence of Furosemide; assay type: functional, organism-based
[5] = target: T3, Solute carrier family 26 member 6 (Homo sapiens, UniProt Q9BXS9); test: Inhibition of SLC26A6 (unknown origin) transfected in rat FRT cells by YFP fluorescence quenching assay; assay type: cell-based
T3 sequence (Q9BXS9 whole entry): T2 sequence (whole entry)

[6] = Selectivity index, ratio of IC50 for SLC26A6 (unknown origin) transfected in rat FRT cells to IC50 for Pendrin (unknown origin) transfected in rat FRT cells; assay type: cell-based
[7] = Cytotoxicity against rat FRT cells assessed as cell viability at 10 uM measured after 24 hrs by Alamar blue dye based assay; assay type: toxicity
[8] = target: Cystic fibrosis transmembrane conductance regulator (Homo sapiens) (UniProt P13569); test: Inhibition of CFTR (unknown origin) transfected in rat FRT cells at 25 uM by YFP fluorescence quenching assay; assay type: cell-based
Cystic fibrosis transmembrane conductance regulator (Homo sapiens), sequence (P13569 whole entry, looked up): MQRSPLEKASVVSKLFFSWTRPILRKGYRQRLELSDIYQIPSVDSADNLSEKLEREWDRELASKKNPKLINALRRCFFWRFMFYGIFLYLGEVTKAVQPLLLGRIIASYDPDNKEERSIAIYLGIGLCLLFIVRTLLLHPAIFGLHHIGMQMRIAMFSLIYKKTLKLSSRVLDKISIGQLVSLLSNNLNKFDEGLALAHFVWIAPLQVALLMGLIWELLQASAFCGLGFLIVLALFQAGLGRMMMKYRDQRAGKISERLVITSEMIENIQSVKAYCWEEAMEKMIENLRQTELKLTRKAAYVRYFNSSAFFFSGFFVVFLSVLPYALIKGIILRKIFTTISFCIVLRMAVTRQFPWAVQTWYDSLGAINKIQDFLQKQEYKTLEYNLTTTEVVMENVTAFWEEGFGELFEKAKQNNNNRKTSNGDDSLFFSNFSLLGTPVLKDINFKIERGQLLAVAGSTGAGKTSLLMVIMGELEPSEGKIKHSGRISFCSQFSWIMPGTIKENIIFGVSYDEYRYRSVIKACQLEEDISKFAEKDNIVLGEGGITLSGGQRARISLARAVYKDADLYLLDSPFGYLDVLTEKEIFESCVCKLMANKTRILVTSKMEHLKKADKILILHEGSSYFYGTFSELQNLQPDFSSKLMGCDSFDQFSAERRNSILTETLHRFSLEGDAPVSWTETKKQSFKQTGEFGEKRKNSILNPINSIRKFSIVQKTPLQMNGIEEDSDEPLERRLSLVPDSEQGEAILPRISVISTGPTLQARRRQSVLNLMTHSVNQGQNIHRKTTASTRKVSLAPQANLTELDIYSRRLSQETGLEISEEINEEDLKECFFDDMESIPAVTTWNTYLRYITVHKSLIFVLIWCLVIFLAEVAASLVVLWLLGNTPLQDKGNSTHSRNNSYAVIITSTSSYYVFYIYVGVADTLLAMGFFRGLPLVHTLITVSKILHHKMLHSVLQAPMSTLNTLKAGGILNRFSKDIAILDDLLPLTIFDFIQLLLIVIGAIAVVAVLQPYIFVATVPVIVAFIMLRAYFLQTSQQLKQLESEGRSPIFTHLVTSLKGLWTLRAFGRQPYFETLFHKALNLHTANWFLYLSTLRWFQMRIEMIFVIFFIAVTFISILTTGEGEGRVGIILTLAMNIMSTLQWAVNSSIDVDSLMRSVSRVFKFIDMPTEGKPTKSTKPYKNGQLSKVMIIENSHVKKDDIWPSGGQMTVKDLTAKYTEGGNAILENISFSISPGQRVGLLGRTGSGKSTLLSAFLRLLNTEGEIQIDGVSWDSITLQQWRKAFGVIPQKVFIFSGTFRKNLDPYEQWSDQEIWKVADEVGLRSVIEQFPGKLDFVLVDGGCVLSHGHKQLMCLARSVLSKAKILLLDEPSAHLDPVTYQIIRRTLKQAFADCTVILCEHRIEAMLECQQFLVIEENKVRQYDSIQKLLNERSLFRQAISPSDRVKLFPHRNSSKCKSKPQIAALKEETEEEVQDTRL

[9] = test system: Mus musculus; test: Potentiation of Furosemide-induced diuretic effect in mouse model at 10 mg/kg, ip measured for 3 hrs relative to control; assay type: functional
[10] = test system: Mus musculus; test: Effect on urine volume in mouse model at 10 mg/kg, ip measured for 3 hrs; assay type: functional, organism-based
[11] = target: T4, Pendrin (Homo sapiens) (UniProt O43511); test: Inhibition of Pendrin (unknown origin) transfected in rat FRT cells at 25 uM by YFP fluorescence quenching assay relative to control; assay type: cell-based
T4 sequence (whole entry): T1 sequence (O43511 whole entry)

[12] = target: T5, Chloride anion exchanger (Homo sapiens) (UniProt P40879); test: Inhibition of SLC26A3 (unknown origin) transfected in rat FRT cells at 25 uM by YFP fluorescence quenching assay; assay type: cell-based
T5 sequence (whole entry): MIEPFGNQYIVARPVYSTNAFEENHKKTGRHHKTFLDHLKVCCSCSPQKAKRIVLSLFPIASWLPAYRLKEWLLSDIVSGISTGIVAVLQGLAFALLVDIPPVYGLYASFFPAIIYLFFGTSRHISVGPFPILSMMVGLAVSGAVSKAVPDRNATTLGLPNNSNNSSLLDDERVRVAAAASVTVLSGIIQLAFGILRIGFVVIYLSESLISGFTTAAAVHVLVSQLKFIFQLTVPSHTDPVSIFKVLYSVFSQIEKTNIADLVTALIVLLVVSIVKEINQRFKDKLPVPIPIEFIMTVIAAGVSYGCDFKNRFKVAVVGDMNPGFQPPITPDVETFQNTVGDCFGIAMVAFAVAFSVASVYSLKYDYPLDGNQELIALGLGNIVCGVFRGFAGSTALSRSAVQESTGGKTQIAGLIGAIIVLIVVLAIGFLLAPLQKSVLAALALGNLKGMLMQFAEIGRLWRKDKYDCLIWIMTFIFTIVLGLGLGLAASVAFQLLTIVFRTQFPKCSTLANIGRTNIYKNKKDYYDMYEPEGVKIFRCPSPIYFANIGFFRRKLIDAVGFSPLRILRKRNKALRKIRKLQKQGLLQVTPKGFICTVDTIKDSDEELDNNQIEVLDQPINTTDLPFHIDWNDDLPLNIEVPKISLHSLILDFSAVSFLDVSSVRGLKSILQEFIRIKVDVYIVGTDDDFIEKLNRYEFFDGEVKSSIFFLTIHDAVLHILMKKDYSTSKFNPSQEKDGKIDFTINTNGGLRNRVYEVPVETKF

[13] = target: T4, Pendrin (Homo sapiens); test: Potency index, ratio of PDSinh-A01 IC50 to test compound IC50 for Pendrin (unknown origin) transfected in rat FRT cells assessed as reduction in Cl-/I- ions exchange by YFP fluorescence quenching assay; assay type: cell-based
[14] = target: T1, Pendrin; test: Inhibition of Pendrin (unknown origin)

Q: For `Cc1oc2ccc(OCc3cc(F)ccc3Cl)cc2c1C(=O)O`, which IC50 [1] is on record?
A: 0.48 µM

Q: And the Activity [2]?
A: No effect

Q: What about the inhibition [3] of the same molecule?
A: Active

Q: And the Activity [4]?
A: No effect

Q: What about the IC50 [5] of the same molecule?
A: 10 µM

Q: What about the Ratio IC50 [6] of the same molecule?
A: 20

Q: And the Activity [7]?
A: Non-toxic

Q: And the inhibition [8]?
A: Active; Exhibited Minimal Effect

Q: What about the Activity [9] of the same molecule?
A: 45%

Q: And the Activity [10]?
A: No effect

Q: What about the inhibition [11] of the same molecule?
A: 100%

Q: What about the inhibition [12] of the same molecule?
A: inactive

Q: For `Cc1ccccc1COc1ccc2oc(C)c(C(=O)O)c2c1`, which IC50 [1] is on record?
A: 1.44 µM

Q: Which results are given for `Cc1oc2ccc(OCc3ccc(Br)cc3)cc2c1C(=O)O`?
A: IC50 [1]: 4.1 µM; Ratio IC50 [13]: 3

Q: With `Cc1oc2ccc(OCc3cccc(Br)c3)cc2c1C(=O)O` as the molecule, how does the IC50 [1] read?
A: 8.2 µM

Q: Which IC50 [1] does the source give for `Cc1oc2ccc(OCc3ccccc3)cc2c1C(=O)O` here?
A: 3.1 µM

Q: Which IC50 [14] does the source give for `Cn1nc(COc2cccc(F)c2)c2c1CCN(C(=O)Nc1ccc(Cl)cc1)C2` here?
A: 12.5 µM

Q: With `Cc1oc2ccc(OCc3cccc(Cl)c3)cc2c1C(=O)O` as the molecule, how does the IC50 [1] read?
A: 4.8 µM

Q: Which IC50 [1] does the source give for `Cc1oc2ccc(OCc3ccc(Cl)cc3)cc2c1C(=O)O` here?
A: 5 µM

Q: For `Cc1oc2ccc(OCc3ccccc3Cl)cc2c1C(=O)O`, which inhibition [3] is on record?
A: Active; Exhibited Minimal Inhibition

Q: And the Activity [7]?
A: Non-toxic

Q: And the inhibition [8]?
A: Active; Exhibited Minimal Effect

Q: And the inhibition [11]?
A: 100%

Q: What about the inhibition [12] of the same molecule?
A: inactive

Source: ChEMBL document CHEMBL6074681, “High potency 3-carboxy-2-methylbenzofuran pendrin inhibitors as novel diuretics” (Eur J Med Chem, 2025)
